According to ChEMBL document CHEMBL1201862, “PubChem BioAssay data set” (2004):
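Step 1: Grow cells in 96-well plates. Step 2: Expose to compound for 48 hours at 5 concentrations. Step 3: Interpolate endpoints linearly; if unreached, use highest concentration. GI50 is the concentration that inhibits growth by half.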 Calls of active or inactive are those of the source. Cut-off read from the data, not from the text of the source: active = GI50 up to about 1.1 µM and inactive = higher.

What was measured:
Assay in all cases: NCI anticancer screen, dose series, 48 h
[1] = system: SK-MEL-5
[2] = system: COLO 205
[3] = system: HOP-92
[4] = system: M14
[5] = system: SF-268
[6] = system: SW-620
[7] = system: LXFL 529
[8] = system: RXF 631
[9] = system: DMS-273
[10] = system: NCI-H23
[11] = system: IGROV-1
[12] = system: HL-60
[13] = system: MOLT-4
[14] = system: OVCAR-4
[15] = system: SF-539
[16] = system: HOP-18
[17] = system: HT-29
[18] = system: UACC-62
[19] = system: Malme-3M
[20] = system: SNB-75
[21] = system: TK-10
[22] = system: DMS-114
[23] = system: CCRF-CEM
[24] = system: SNB-19
[25] = system: 786-0
[26] = system: SN12C
[27] = system: HCT-15
[28] = system: SK-OV-3
[29] = system: ACHN
[30] = system: UACC-257
[31] = system: KM12
[32] = system: SR
[33] = system: HOP-62
[34] = system: CAKI-1
[35] = system: EKVX
[36] = system: KM-20L2
[37] = system: NCI-H522
[38] = system: A549
[39] = system: HCC 2998
[40] = system: OVCAR-8
[41] = system: UO-31
[42] = system: NCI-H460
[43] = system: SK-MEL-28
[44] = system: M19-MEL
[45] = system: SF-295
[46] = system: LOX IMVI
[47] = system: HCT-116
[48] = system: OVCAR-3
[49] = system: A498
[50] = system: OVCAR-5
[51] = system: RPMI-8226
[52] = system: SNB-78
[53] = system: DLD-1
[54] = system: K562
[55] = system: RXF 393
[56] = system: NCI-H226
[57] = system: SK-MEL-2
[58] = system: U-251

## O=C(Cc1nc2ccc(C(=O)c3ccccc3)cc2nc1O)C(=O)Nc1nc2ccccc2[nH]1
[1]
  GI50: 31 µM (inactive)
[2]
  GI50: 36.8 µM (inactive)
[3]
  GI50: 23 µM (inactive)
[4]
  GI50: 82.6 µM (inactive)
[5]
  GI50: 67 µM (inactive)
[6]
  GI50: 42.9 µM (inactive)
[7]
  GI50: 45.2 µM (inactive)
[8]
  GI50: 65.5 µM (inactive)
[9]
  GI50: 20.9 µM (inactive)
[10]
  GI50: 44.6 µM (inactive)
[11]
  GI50: 93.5 µM (inactive)
[12]
  GI50: 35.8 µM (inactive)
[13]
  GI50: 42.8 µM (inactive)
[14]
  GI50: 61.7 µM (inactive)
[15]
  GI50: 71 µM (inactive)
[16]
  GI50: 77.1 µM (inactive)
[17]
  GI50: 52.7 µM (inactive)
[18]
  GI50: 38.7 µM (inactive)
[19]
  GI50: 87.9 µM (inactive)
[20]
  GI50: 31.7 µM (inactive)
[21]
  GI50: 49.3 µM (inactive)
[22]
  GI50: 23.8 µM (inactive)
[23]
  GI50: 38.3 µM (inactive)
[24]
  GI50: > 100 µM (inactive)
[25]
  GI50: > 100 µM (inactive)
[26]
  GI50: > 100 µM (inactive)
[27]
  GI50: 75 µM
[28]
  GI50: > 100 µM (inactive)
[29]
  GI50: 86.7 µM (inactive)
[30]
  GI50: 84.5 µM (inactive)
[31]
  GI50: 24.6 µM (inactive)
[32]
  GI50: 11.7 µM (inactive)
[33]
  GI50: 33.3 µM (inactive)
[34]
  GI50: 40.2 µM (inactive)
[35]
  GI50: > 100 µM (inactive)
[36]
  GI50: 63.5 µM (inactive)
[37]
  GI50: 30 µM (inactive)
[38]
  GI50: 50.9 µM (inactive)
[39]
  GI50: > 100 µM (inactive)
[40]
  GI50: 55.1 µM (inactive)
[41]
  GI50: 60.3 µM (inactive)
[42]
  GI50: 46.5 µM (inactive)
[43]
  GI50: 98.6 µM (inactive)
[44]
  GI50: 56.1 µM (inactive)
[45]
  GI50: 28.4 µM (inactive)
[46]
  GI50: 44 µM (inactive)
[47]
  GI50: 51.6 µM (inactive)
[48]
  GI50: 62.5 µM (inactive)

## CCN(c1ccccc1)[C@H]1C(=O)N(c2ccc([N+](=O)[O-])cc2)[C@H]1c1ccc(OC)cc1
[1]
  GI50: > 100 µM (inactive)
[2]
  GI50: 38 µM (inactive)
[3]
  GI50: 15.8 µM (inactive)
[5]
  GI50: > 100 µM (inactive)
[49]
  GI50: 80.7 µM (inactive)
[6]
  GI50: > 100 µM (inactive)
[50]
  GI50: > 100 µM (inactive)
[7]
  GI50: > 100 µM (inactive)
[8]
  GI50: 35.8 µM (inactive)
[9]
  GI50: > 100 µM (inactive)
[10]
  GI50: > 100 µM (inactive)
[11]
  GI50: > 100 µM (inactive)
[51]
  GI50: > 100 µM (inactive)
[12]
  GI50: 75.3 µM (inactive)
[52]
  GI50: > 100 µM (inactive)
[13]
  GI50: > 100 µM (inactive)
[53]
  GI50: > 100 µM (inactive)
[15]
  GI50: 35.2 µM (inactive)
[54]
  GI50: 41.6 µM (inactive)
[17]
  GI50: > 100 µM (inactive)
[18]
  GI50: 35.7 µM (inactive)
[19]
  GI50: > 100 µM (inactive)
[20]
  GI50: 46.9 µM (inactive)
[21]
  GI50: > 100 µM (inactive)
[22]
  GI50: > 100 µM (inactive)
[23]
  GI50: 39.1 µM (inactive)
[24]
  GI50: > 100 µM (inactive)
[25]
  GI50: > 100 µM (inactive)
[26]
  GI50: 98.6 µM (inactive)
[28]
  GI50: 56.8 µM (inactive)
[29]
  GI50: > 100 µM (inactive)
[30]
  GI50: > 100 µM (inactive)
[31]
  GI50: > 100 µM (inactive)
[32]
  GI50: > 100 µM (inactive)
[34]
  GI50: 73.3 µM (inactive)
[35]
  GI50: > 100 µM (inactive)
[55]
  GI50: 37.6 µM (inactive)
[37]
  GI50: 63.5 µM (inactive)
[38]
  GI50: > 100 µM (inactive)
[39]
  GI50: > 100 µM (inactive)
[40]
  GI50: > 100 µM (inactive)
[41]
  GI50: > 100 µM (inactive)
[42]
  GI50: > 100 µM (inactive)
[43]
  GI50: > 100 µM (inactive)
[44]
  GI50: 61.7 µM (inactive)
[56]
  GI50: > 100 µM (inactive)
[45]
  GI50: 52.5 µM (inactive)
[57]
  GI50: > 100 µM (inactive)
[58]
  GI50: > 100 µM (inactive)
[47]
  GI50: > 100 µM (inactive)
[48]
  GI50: > 100 µM (inactive)

## COc1cc(Br)c(CC2=NCCc3cc(OC)c(OC)cc32)cc1OC
[1]
  GI50: 16.7 µM (inactive)
[2]
  GI50: 14.1 µM (inactive)
[3]
  GI50: 1.64 µM (inactive)
[4]
  GI50: 12.9 µM (inactive)
[5]
  GI50: 51.2 µM (inactive)
[49]
  GI50: 14.9 µM (inactive)
[6]
  GI50: 18 µM (inactive)
[50]
  GI50: 3.88 µM (inactive)
[7]
  GI50: 12.5 µM (inactive)
[8]
  GI50: 10.2 µM (inactive)
[9]
  GI50: 15.9 µM (inactive)
[10]
  GI50: 9.71 µM (inactive)
[11]
  GI50: 12.2 µM (inactive)
[51]
  GI50: 18.3 µM (inactive)
[12]
  GI50: 2.33 µM (inactive)
[13]
  GI50: 15.8 µM (inactive)
[53]
  GI50: 45.4 µM (inactive)
[14]
  GI50: 28.9 µM (inactive)
[15]
  GI50: 11.7 µM (inactive)
[16]
  GI50: 11.3 µM (inactive)
[54]
  GI50: 5.4 µM (inactive)
[17]
  GI50: 2.16 µM (inactive)
[18]
  GI50: 7.13 µM (inactive)
[19]
  GI50: 25.9 µM (inactive)
[20]
  GI50: 36.3 µM (inactive)
[21]
  GI50: 5.65 µM (inactive)
[22]
  GI50: 8.89 µM (inactive)
[23]
  GI50: 19.7 µM (inactive)
[24]
  GI50: 48.8 µM (inactive)
[25]
  GI50: 16.7 µM (inactive)
[26]
  GI50: 15.3 µM (inactive)
[27]
  GI50: 31 µM
[28]
  GI50: 24.6 µM (inactive)
[29]
  GI50: 14.8 µM (inactive)
[30]
  GI50: 16.6 µM (inactive)
[31]
  GI50: 20.9 µM (inactive)
[32]
  GI50: 6.78 µM (inactive)
[33]
  GI50: > 100 µM (inactive)
[34]
  GI50: 15.9 µM (inactive)
[35]
  GI50: 35.7 µM (inactive)
[36]
  GI50: 3.18 µM (inactive)
[37]
  GI50: 16.9 µM (inactive)
[38]
  GI50: 21.1 µM (inactive)
[39]
  GI50: 16.4 µM (inactive)
[40]
  GI50: 48.1 µM (inactive)
[41]
  GI50: 11.3 µM (inactive)
[42]
  GI50: 2.35 µM (inactive)
[43]
  GI50: 19.7 µM (inactive)
[44]
  GI50: 27.9 µM (inactive)
[56]
  GI50: 11 µM (inactive)
[45]
  GI50: 0.7 µM (active)
[57]
  GI50: 53.1 µM (inactive)
[46]
  GI50: 9.93 µM (inactive)
[58]
  GI50: 11.3 µM (inactive)
[47]
  GI50: 3.16 µM (inactive)
[48]
  GI50: 42.9 µM (inactive)
